US20220009967A1, “Isolation and Semi-Synthesis of Rufomycin Analogs” (THE BOARD OF TRUSTEES OF THE UNIVERSITY OF ILLINOIS, priority 2020, published 2022)
In brackets after ≈: the same amount, converted by molar mass. Where two headings read alike, the source gives them in different places.

Legend:
Mycobacterial ClpC1 FL = biological target: T1, Mycobacterial ClpC1 FL (Mycobacterium tuberculosis, UniProt P9WPC9); assay: SPR binding affinity to ClpC1 full-length protein (FL)
T1 construct: N-terminal domain (NTD) and the full-length protein (FL) by surface plasmon resonance (SPR)
Protocol: (§1) Analysis of binding affinity to Mycobacterial ClpC1-NTD and FL by SPR. SPR binding assay was performed using a previously reported method (Choules et al., Antimicrob. Agents Chemother. 2019, 63, e02204-02218; Wolf et al., ACS Infect. Dis. 2019, 5, 829-840). Kinetic rate constants (ka and kd) were determined by fitting the double-reference data globally to the 1:1 Langmuir model embedded in the Biacore T200 evaluation software (v3.0). KD values were then calculated from the two rate constants (KD=kd/ka). Smaller KD values represent tighter binding affinities.

Mycobacterial ClpC1-NTD = biological target: T2, Mycobacterial ClpC1-NTD (Mycobacterium tuberculosis, UniProt P9WPC9); assay: SPR binding affinity to ClpC1-NTD
T2 construct: caseinolytic protein C1 (ClpC1) N-terminal domain (NTD)
Protocol: as §1

M. tuberculosis = assay: MIC against M. tuberculosis, microplate Alamar Blue assay (MABA); format: cell-based, Mycobacterium tuberculosis; parameters: MIC90: unit not given beside the values; settings: for MIC: Mycobacterium tuberculosis; for MIC90: MABA, Table 3, unit not given; for anti-M.tb potency relative to rifampin and isoniazid (in words): MIC data of Table 3
Protocol: MICs against M. tuberculosis. The MIC was defined as the minimum concentration of the compound required to achieve a reduction in fluorescence by 90% relative to the untreated bacterial controls. The anti-TB activity was determined by the microplate Alamar Blue assay (MABA) as previously described (Choules et al., Antimicrob. Agents Chemother. 2019, 63, e02204-02218).

[1] = Interconversion (epimerization) of rufomycin diastereomers, HPLC analysis; format: physicochemical; settings: for interconversion / stability of diastereomers (in words): HPLC analysis, hemi-aminal epimers
Excerpt: The rufomycins 32-35 were identified as four diastereomers, arising from different orientations of the hydroxyl and methyl groups in the hydroxy-methyl piperidinone moiety. Rufomycin 32 was assigned the (AA5, 4S,5R) absolute configuration based on the ROESY correlations, and further confirmed by the cocrystal structures of rufomycin 32 and ClpC1-NTD. Thus, rufomycin 32 is that congener previously identified as ilamycin, Compound 4, and ilamycin C1 (PCT/US2000/015044). […] The assigned 4S,5S (AA5) absolute configuration for rufomycin 33 was validated by the ROESY correlations. Rufomycin 34 with the absolute configuration 4R,5R (AA5) was established by the ROESY cross-peaks. […] After being purified by semi-prep HPLC, rufomycin 35 was concentrated under a stream of forced air and freeze drying to reduce interconversion.

[2] = biological target: caseinolytic protein C1 (ClpC1) full-length protein (FL) (Mycobacterial (Mycobacterium tuberculosis by context)) (UniProt P9WPC9); assay: SPR (Biacore T200), 1:1 Langmuir fit, KD=kd/ka
[3] = biological target: caseinolytic protein C1 (ClpC1) N-terminal domain (NTD) (Mycobacterial (Mycobacterium tuberculosis by context)) (UniProt P9WPC9); assay: SPR (Biacore T200), 1:1 Langmuir fit, KD=kd/ka
[4] = ClpC1 full-length protein, KD=kd/ka, Table 1, read-out: SPR KD FL
[5] = ClpC1 N-terminal domain, KD=kd/ka, Table 1, read-out: SPR KD NTD
[6] = SPR, ClpC1 full-length protein, Table 3, unit inferred, read-out: KD FL
[7] = SPR, ClpC1 N-terminal domain, Table 3, unit inferred, read-out: KD NTD

T1 sequence (P9WPC9 whole entry, the tested form may be a part): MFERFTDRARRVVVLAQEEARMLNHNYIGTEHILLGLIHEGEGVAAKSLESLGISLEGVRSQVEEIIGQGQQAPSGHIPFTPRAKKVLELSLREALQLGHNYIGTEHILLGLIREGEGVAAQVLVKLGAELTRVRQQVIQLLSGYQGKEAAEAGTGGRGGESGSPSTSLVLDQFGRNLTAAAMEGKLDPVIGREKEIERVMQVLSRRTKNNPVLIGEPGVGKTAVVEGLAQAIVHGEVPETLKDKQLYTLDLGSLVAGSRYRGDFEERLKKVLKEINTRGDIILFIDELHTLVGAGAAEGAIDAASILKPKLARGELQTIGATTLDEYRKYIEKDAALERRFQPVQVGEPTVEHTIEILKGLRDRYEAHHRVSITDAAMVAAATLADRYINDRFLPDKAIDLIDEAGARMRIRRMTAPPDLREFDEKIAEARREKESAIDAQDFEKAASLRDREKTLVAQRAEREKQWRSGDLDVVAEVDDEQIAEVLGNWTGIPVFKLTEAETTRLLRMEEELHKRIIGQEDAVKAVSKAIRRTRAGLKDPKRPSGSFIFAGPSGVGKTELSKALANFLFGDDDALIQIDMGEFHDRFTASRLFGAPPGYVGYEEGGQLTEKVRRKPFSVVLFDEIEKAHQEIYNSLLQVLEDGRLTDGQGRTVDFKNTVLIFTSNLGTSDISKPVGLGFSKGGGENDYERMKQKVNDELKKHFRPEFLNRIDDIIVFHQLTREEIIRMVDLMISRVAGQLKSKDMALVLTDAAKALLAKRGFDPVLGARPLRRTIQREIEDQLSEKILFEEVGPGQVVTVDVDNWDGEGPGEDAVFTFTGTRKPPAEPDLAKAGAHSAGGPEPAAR
Sequence of caseinolytic protein C1 (ClpC1) N-terminal domain (NTD) (Mycobacterial (Mycobacterium tuberculosis by context)) (P9WPC9 1-145 limits assumed): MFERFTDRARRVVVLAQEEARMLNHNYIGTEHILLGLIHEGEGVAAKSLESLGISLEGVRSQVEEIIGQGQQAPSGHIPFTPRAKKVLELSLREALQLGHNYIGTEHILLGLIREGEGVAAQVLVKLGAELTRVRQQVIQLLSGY
Sequence of caseinolytic protein C1 (ClpC1) full-length protein (FL) (Mycobacterial (Mycobacterium tuberculosis by context)) (P9WPC9 whole entry, the tested form may be a part): as the sequence (P9WPC9 whole entry, the tested form may be a part) above

Compound	MIC (M. tuberculosis)	Kd (Mycobacterial ClpC1 FL; [4])	Kd (Mycobacterial ClpC1-NTD; [5])	Kd (Mycobacterial ClpC1 FL; [6])	Kd (Mycobacterial ClpC1-NTD; [7])	MIC90 (M. tuberculosis)	other results
C/C=C/C[C@@H]1NC(=O)[C@H](CC(C)C)N2C=C(C)C[C@@H](C2=O)N(C)C(=O)[C@H](C)NC(=O)[C@H](Cc2ccc(OC(=O)c3ccccc3)c([N+](=O)[O-])c2)NC(=O)[C@H](CC(C)C)N(C)C(=O)[C@H](Cc2cn(C(C)(C)[C@H](O)CCl)c3ccccc23)NC1=O [Compound 17]	0.0529 µM (≈ 0.0616 µg/mL)	–	–	–	–	–	Kd (Mycobacterial ClpC1 FL): 2030 nM; Kd (Mycobacterial ClpC1-NTD): 1250 nM
C/C=C/C[C@@H]1NC(=O)[C@H](CC(C)C)N2C=C(C)C[C@@H](C2=O)N(C)C(=O)[C@H](C)NC(=O)[C@H](Cc2ccc(O)c(N)c2)NC(=O)[C@H](CC(C)C)N(C)C(=O)[C@H](Cc2cn(C(C)(C)[C@H](O)CCl)c3ccccc23)NC1=O [Compound 19]	0.887 µM (≈ 0.914 µg/mL)	319 nM	501 nM	–	–	–	–
C/C=C/C[C@@H]1NC(=O)[C@H](CC(C)C)N2C=C(C)C[C@@H](C2=O)N(C)C(=O)[C@H](C)NC(=O)[C@H](Cc2ccc3c(c2)N=C(C)CC(C)(C)O3)NC(=O)[C@H](CC(C)C)N(C)C(=O)[C@H](Cc2cn(C(C)(C)[C@H](O)CCl)c3ccccc23)NC1=O [Compound 20]	0.782 µM (≈ 0.869 µg/mL)	234 nM	196 nM	–	–	–	–
C/C=C/C[C@@H]1NC(=O)[C@H](CC(C)C)N2C(=O)[C@H](CC(C)[C@H]2OC)N(C)C(=O)[C@H](C)NC(=O)[C@H](Cc2ccc(OC)c([N+](=O)[O-])c2)NC(=O)[C@H](CC(C)C)N(C)C(=O)[C@H](Cc2cn(C(C)(C)[C@H]3CO3)c3ccccc23)N(C)C1=O (stereo partly drawn) [Compound 24]	0.0646 µM (≈ 0.07 µg/mL)	513 nM	451 nM	–	–	–	–
C/C=C/C[C@@H]1NC(=O)[C@H](CC(C)C)N2C(=O)[C@H](CC(C)[C@H]2O)N(C)C(=O)[C@H](C)NC(=O)[C@H](Cc2ccc(OC(C)=O)c([N+](=O)[O-])c2)NC(=O)[C@H](CC(C)C)N(C)C(=O)[C@H](Cc2cn(C(C)(C)[C@H]3CO3)c3ccccc23)NC1=O (stereo partly drawn) [Compound 25]	0.0184 ± 0.006 µM (≈ 0.02 µg/mL)	72.5 nM	56 nM	–	–	–	–
C/C=C/C[C@@H]1NC(=O)[C@H](CC(C)C)N2C(=O)[C@H](CC(C)[C@H]2OC(C)=O)N(C)C(=O)[C@H](C)NC(=O)[C@H](Cc2ccc(OC(C)=O)c([N+](=O)[O-])c2)NC(=O)[C@H](CC(C)C)N(C)C(=O)[C@H](Cc2cn(C(C)(C)[C@H]3CO3)c3ccccc23)NC1=O (stereo partly drawn) [Compound 26]	0.0089 ± 0.0036 µM (≈ 0.01 µg/mL)	16 nM	33.8 nM	–	–	–	–
C/C=C/C[C@@H]1NC(=O)[C@H](CC(C)C)N2C(=O)[C@H](CC(C)[C@H]2O)N(C)C(=O)[C@H](C)NC(=O)[C@H](Cc2ccc(OC)c([N+](=O)[O-])c2)NC(=O)[C@H](CC(C)C)N(C)C(=O)[C@H](Cc2cn(C(C)(C)[C@H]3CO3)c3ccccc23)NC1=O (stereo partly drawn) [Compound 29]	0.0543 µM (≈ 0.0574 µg/mL)	133 nM	117 nM	–	–	–	–
C/C=C/C[C@@H]1NC(=O)[C@H](CC(C)C)N2C(=O)[C@H](CC(C)[C@H]2OC)N(C)C(=O)[C@H](C)NC(=O)[C@H](Cc2ccc(OC)c([N+](=O)[O-])c2)NC(=O)[C@H](CC(C)C)N(C)C(=O)[C@H](Cc2cn(C(C)(C)[C@H]3CO3)c3ccccc23)NC1=O (stereo partly drawn) [Compound 30]	0.0058 µM (≈ 0.00621 µg/mL)	75.1 nM	55.5 nM	–	–	–	–
C/C=C/C[C@@H]1NC(=O)[C@H](CC(C)C)N2C(=O)[C@H](C[C@H](C)[C@H]2O)N(C)C(=O)[C@H](C)NC(=O)[C@H](Cc2ccc(O)c([N+](=O)[O-])c2)NC(=O)[C@H](CC(C)C)N(C)C(=O)[C@H](Cc2cn(C(C)(C)[C@H]3CO3)c3ccccc23)NC1=O [rufomycin 32]	–	–	–	31 nM	32 nM	21	anti-M.tb potency relative to rifampin and isoniazid (in words) (M. tuberculosis): higher potency than drugs rifampin and isoniazid; interconversion / stability of diastereomers (in words) [1]: interconvertible
C/C=C/C[C@@H]1NC(=O)[C@H](CC(C)C)N2C(=O)[C@H](C[C@H](C)[C@@H]2O)N(C)C(=O)[C@H](C)NC(=O)[C@H](Cc2ccc(O)c([N+](=O)[O-])c2)NC(=O)[C@H](CC(C)C)N(C)C(=O)[C@H](Cc2cn(C(C)(C)[C@H]3CO3)c3ccccc23)NC1=O [rufomycin 33]	–	–	–	27 nM	29 nM	12	anti-M.tb potency relative to rifampin and isoniazid (in words) (M. tuberculosis): higher potency than drugs rifampin and isoniazid; interconversion / stability of diastereomers (in words) [1]: interconvertible
C/C=C/C[C@@H]1NC(=O)[C@H](CC(C)C)N2C(=O)[C@H](C[C@@H](C)[C@H]2O)N(C)C(=O)[C@H](C)NC(=O)[C@H](Cc2ccc(O)c([N+](=O)[O-])c2)NC(=O)[C@H](CC(C)C)N(C)C(=O)[C@H](Cc2cn(C(C)(C)[C@H]3CO3)c3ccccc23)NC1=O [rufomycin 34]	–	–	–	178 nM	183 nM	46	conversion to rufomycin 35 ([1]; under aqueous conditions, slowly): ~5%
C/C=C/C[C@@H]1NC(=O)[C@H](CC(C)C)N2C(=O)[C@H](C[C@@H](C)[C@@H]2O)N(C)C(=O)[C@H](C)NC(=O)[C@H](Cc2ccc(O)c([N+](=O)[O-])c2)NC(=O)[C@H](CC(C)C)N(C)C(=O)[C@H](Cc2cn(C(C)(C)[C@H]3CO3)c3ccccc23)NC1=O [rufomycin 35]	–	–	–	209 nM	186 nM	47	interconversion / stability of diastereomers (in words) [1]: the most unstable diastereomer; epimerization to rufomycin 34 ([1]; during concentration, quickly): ~50%
rufomycins 1 and 2 mixture (peptide)	–	–	–	–	–	–	Kd [2]: 70 nM; Kd [3]: 70 nM
